The target in experiment [1] is T1, BRD9 bromodomain (Flag-BRD9 P133-K239; Swiss Prot Q9H8M2) (Homo sapiens, UniProt Q9H8M2).
T1 construct: His-Flag-BRD9 (P133-K239); Swiss Prot Q9H8M2; His6 with TEV site (mgsshhhhhhenlyfq/) (N, cleaved yes); made in house
T1 sequence (Q9H8M2 133-239): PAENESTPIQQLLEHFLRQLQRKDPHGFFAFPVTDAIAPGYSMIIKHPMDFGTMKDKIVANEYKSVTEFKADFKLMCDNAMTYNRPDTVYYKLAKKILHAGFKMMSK
Put plainly: BRD9 Bromodomain TR-FRET Competition Binding Assay. The settings on record: competition with biotinylated BRD9 ligand; 90 minutes at room temperature. Here is the method:
Procedure: His-Flag-BRD9 (P133-K239; Swiss Prot Q9H8M2; SEQ ID NO:1 mgsshhhhhhenlyfq/gdykddddkgslevlfqg/[…] […]) was cloned, expressed, purified, and then treated with TEV protease. Cleaved His tag was removed by purification. The binding of a biotinylated small molecule ligand of BRD9 was assessed via the LANCE® TR-FRET platform (PerkinElmer), and the compounds were assayed for inhibitory activity against this interaction.
Results: A mixture of biotinylated-ligand and SureLight™ Allophycocyanin-Streptavidin (APC-SA, PerkinElmer AD0201) in 50 mM HEPES (pH 7.4), 50 mM NaCl, 1 mM TCEP (pH 7), 0.01% (v/v) Tween-20, 0.01% (w/v) bovine serum albumin was added to a white 384-well PerkinElmer Proxiplate Plus plate. DMSO or 3-fold serially diluted compounds were then added to the Proxiplate followed by addition of Flag-BRD9. After a 10-minute incubation at room temperature, Eu-W1024 anti-FLAG (PerkinElmer, AD0273) was added. The final reaction mixture that contained 3.75 nM biotinylated ligand, 3 nM Flag-BRD9, 7.5 nM SureLight™ Allophycocyanin-Streptavidin, and 0.2 nM Eu-W1024 anti-FLAG was incubated at room temperature for 90 minutes.
The plates were then read on a PerkinElmer Envision plate reader to determine the ratio of emission at 665 nm over 615 nm. […]
Background: Time-resolved FRET reads energy transfer from a long-lived donor to a nearby acceptor.

For experiment [2], the target named is T2, Nanoluciferase-BRD9 fusion protein (3×FLAG-NLuc-BRD9) in SYO-1 cells (Homo sapiens, UniProt Q9H8M2).
T2 construct: expressed in transfected cells; host or cells: SYO-1
T2 sequence (Q9H8M2 1-597): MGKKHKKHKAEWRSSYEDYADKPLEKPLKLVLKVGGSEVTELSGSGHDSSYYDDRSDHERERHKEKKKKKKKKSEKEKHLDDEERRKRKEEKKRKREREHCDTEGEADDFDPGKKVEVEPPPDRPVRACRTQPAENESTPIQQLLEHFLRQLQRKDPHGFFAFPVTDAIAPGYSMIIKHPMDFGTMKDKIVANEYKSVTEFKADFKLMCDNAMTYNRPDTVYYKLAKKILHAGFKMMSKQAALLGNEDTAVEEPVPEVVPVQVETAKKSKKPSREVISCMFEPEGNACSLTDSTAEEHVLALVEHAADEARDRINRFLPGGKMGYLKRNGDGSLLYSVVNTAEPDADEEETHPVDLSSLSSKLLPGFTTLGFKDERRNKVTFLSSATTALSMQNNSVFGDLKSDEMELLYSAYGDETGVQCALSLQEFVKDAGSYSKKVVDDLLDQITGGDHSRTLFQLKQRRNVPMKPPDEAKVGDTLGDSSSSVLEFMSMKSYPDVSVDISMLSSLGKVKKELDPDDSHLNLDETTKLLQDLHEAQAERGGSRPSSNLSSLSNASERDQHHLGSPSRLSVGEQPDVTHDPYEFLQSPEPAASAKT
The experiment is described as follows: SYO1 BRD9 NanoLuc Degradation Assay. Conditions: 6 hours; SYO-1 cells expressing 3×FLAG-NLuc-BRD9; top dose 1 μM; read-out: SYO1 BRD9-NanoLuc degradation IC50. In kind it is cell-based. In outline:
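Stable 3×FLAG-NLuc-BRD9 SYO-1 line, 8000 cells/well, dosed day 1 with 10-point 3-fold dilutions (1 μM final top, duplicates) for 6 h. NanoLuc bioluminescence read with Nano-Glo; % inhibition relative to DMSO (high) and 1 μM reference BRD9 degrader (low) controls.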

For orientation: IC50 means the concentration needed to halve the response being measured. A higher IC50 goes with weaker potency in that assay. In experiment [1], `COc1cc(-c2cn(C)c(=O)c3cnc(N(C)C)cc23)cc(OC)c1CN1CCC2(CC1)CN(C(=O)CCCOc1cccc3c1C(=O)N(C1CCC(=O)NC1=O)C3=O)CCO2` (stereo not drawn) [Compound D18, 4-(4-(9-(4-(6-(dimethylamino)-2-methyl-1-oxo-1,2-dihydro-2,7-naphthyridin-4-yl)-2,6-dimethoxybenzyl)-1-oxa-4,9-diazaspiro[5.5]undecan-4-yl)-4-oxobutoxy)-2-(2,6-dioxopiperidin-3-yl)isoindoline-1,3-dione formic acid] returned an IC50 of under 0.01 µM. Besides, the DC50 in experiment [2] was under 0.01 µM.
Consider `COc1cc(-c2cn(C)c(=O)c3cc(NC(=O)CCOCCOCCNc4ccc5c(c4)C(=O)N(C4CCC(=O)NC4=O)C5=O)ncc23)cc(OC)c1CN(C)C` (stereo not drawn) [Compound D13, N-(8-[4-[(dimethylamino)methyl]-3,5-dimethoxyphenyl]-6-methyl-5-oxo-2,6-naphthyridin-3-yl)-3-[2-(2-[[2-(2,6-dioxopiperidin-3-yl)-1,3-dioxoisoindol-5-yl]amino]ethoxy)ethoxy]propanamide formic acid], for which, in experiment [1], the IC50 was at least 0.1 µM. Moreover, in experiment [2], the DC50 was at least 1 µM.
The corresponding values for `COc1cc(-c2cn(C)c(=O)c3cnc(NC(=O)CCOCCOCCNc4ccc5c(c4)C(=O)N(C4CCC(=O)NC4=O)C5=O)cc23)cc(OC)c1CN(C)C` (stereo not drawn) [Compound D14, N-(5-(4-((dimethylamino)methyl)-3,5-dimethoxyphenyl)-7-methyl-8-oxo-7,8-dihydro-2,7-naphthyridin-3-yl)-3-(2-(2-((2-(2,6-dioxopiperidin-3-yl)-1,3-dioxoisoindolin-5-yl)amino)ethoxy)ethoxy)propanamide formic acid] are at least 0.01 µM and at least 0.1 µM.
For `COc1cc(-c2cn(C)c(=O)c3cnc(NCCOCCOCCNc4cccc5c4C(=O)N(C4CCC(=O)NC4=O)C5=O)cc23)cc(OC)c1CN(C)C` (stereo not drawn) [Compound D10, 4-[[2-(2-[2-[(5-[4-[(dimethylamino)methyl]-3,5-dimethoxyphenyl]-7-methyl-8-oxo-2,7-naphthyridin-3-yl)amino]ethoxy]ethoxy)ethyl]amino]-2-(2,6-dioxopiperidin-3-yl)isoindole-1,3-dione formic acid], the IC50 in experiment [1] is at least 0.01 µM. For the same molecule, the DC50 in experiment [2] is at least 0.01 µM.
Turning to `COc1cc(-c2cn(C)c(=O)c3cc(NC(=O)CCOCCOCCNc4cccc5c4C(=O)N(C4CCC(=O)NC4=O)C5=O)ncc23)cc(OC)c1CN(C)C` (stereo not drawn) [Compound D9, N-(8-[4-[(dimethylamino)methyl]-3,5-dimethoxyphenyl]-6-methyl-5-oxo-2,6-naphthyridin-3-yl)-3-[2-(2-[[2-(2,6-dioxopiperidin-3-yl)-1,3-dioxoisoindol-4-yl]amino]ethoxy)ethoxy]propanamide], the IC50 in experiment [1] is at least 0.1 µM. Besides, the DC50 in experiment [2] was at least 1 µM.
Molecule `COc1cc(-c2cn(C)c(=O)c3cnc(N(C)CCOCCOCCNc4cccc5c4C(=O)N(C4CCC(=O)NC4=O)C5=O)cc23)cc(OC)c1CN(C)C` (stereo not drawn) [Compound D31, 4-[10-(5-[4-[(dimethylamino)methyl]-3,5-dimethoxyphenyl]-7-methyl-8-oxo-2,7-naphthyridin-3-yl)-4,7-dioxa-1,10-diazaundecan-1-yl]-2-(2,6-dioxopiperidin-3-yl)isoindole-1,3-dione] showed an IC50 in experiment [1] of at least 0.01 µM. Further, in experiment [2], the DC50 was at least 0.1 µM.

The record behind these values is patent publication US12391686B2, “Compounds and uses thereof” (Foghorn Therapeutics Inc., priority 2019, dated 2025).
